According to patent publication US12139505B2, “Compositions useful in therapy of autophagy-related pathologies, and methods of making and using the same” (The University of Toledo, priority 2017, dated 2024):
“Also recorded” adds a separate entry of the source.

Assays:
[1] = system: RG2 glioma cells; test: Autophagic flux assay (LC3-II western blot in the presence of bafilomycin-A1); format: cell-based, rat; details: RG2 glioma cells, 4 h, 50 nM bafilomycin-A1, western blot
Experimental: In the assay, cells are treated with subtoxic concentrations of bafilomycin-A, which blocks lysosomal acidification. This prevents autophagosome fusion with lysosomes at a specific point. For example, RG2 glioma cells (or other cell types) are “clamped” by addition of 10-50 nM bafilomycin-A1 to block autophagosome fusion with lysosomes and eliminate autophagy clearance. Then, autophagy flux is measured by the conjugation of phosphatidylethanolamine to LC3-I, yielding an electrophoretically separable LC3-II by western blot. LC3-II acts as a link between nascent autophagosomes and cargo being directed into these structures. An autophagy enhancer will increase LC3-II in the presence of bafilomycin, whereas a compound that inhibits autophagy completion will not do so. Thus, the L3A-I to LC3A-II conversion in the presence of bafilomycin-A1 constitutes a valid measure of autophagy.
For the assays, rat glioma cells RG2 (ATCC® CRL-2433™; RG2 cells) were cultured. […] The cells were then incubated for an additional 4 h. At termination, the cell culture medium was removed, cells were washed with PBS and lysed on ice in Pierce RIPA buffer containing protease and phosphatase inhibitors.
Western Blotting: The proteins were electrophoresed and wet-blotted to polyvinylidine difluoride membranes, blocked overnight in 4% bovine serum albumin, and developed using antibodies obtained from Cell Signaling Technology (L3A: cat #. 4599; ULK1: cat #. 8054, ULK1(p757): cat #. 6880).
RG2 glioma cells were treated without drug (first column in FIG. 8A) or 4 h with 50 nM bafilomycin-A1 (BAF), the indicated concentration of LK, or the phosphonate analog 2-isopropyl-LK-3-phosphonate. The western blot results are shown in FIG. 8A, where the lower band corresponds to LC3-II. An increase in the intensity of this band in the presence of bafilomycin-A1 indicates increased autophagic flux. […] Similar results are shown in FIG. 9 with respect to the LK-P compound 2-butyl-lanthionine-phosphonate (also referred to as 2-n-butyl-lanthionine-phosphonate or 2-n-butyl-LK-P).
RG2 glioma cells (American Tissue Type Collection, ATTC, Rockville MD USA) were treated for 4 h with 50 nM bafilomycin-A1 (previously dissolved to 1000× final concentration in dimethylsulfoxide). Thirty minutes after addition of bafilomycin, cells were treated with test agents at 100× final concentration. Cells were lysed in RIPA buffer containing protease and phosphatase inhibitors. Protein concentration was assayed and normalized to constant values (typically 5-7 mg/mL). Proteins were electrophoresed across 4-20% polyacrylamide gels and wet blotted onto polyvinylidine difluoride (PVDF) membranes. Proteins were blotted with commercially available antibodies against LC3.

[2] = Stability of the isolated solid to high vacuum; format: physicochemical; details: isolated white solid, at least overnight
[3] = system: HeLa cells; test: Rescue of HeLa cells from TNFa toxicity, tetrazolium reduction assay; format: cell-based; details: 20 h 10 ng/mL TNFa, 10 micromolar cycloheximide
Experimental: HeLa cells were treated 20 h with 10 ng/mL recombinant human TNFa in the presence of 10 micromolar cycloheximide and viability measured by tetrazolium reduction assay.

[4] = system: 3×Tg-AD mouse; details: cited from earlier work
[5] = system: ULK1 system in RG2 cells; test: ULK1/ULK1(p757) quantitative autophagy stimulation assay; format: cell-based, rat; details: 24 h in RG2 cells; read-out: EC50 on the ULK1 system (ULK1 increase and ULK1(p757) decrease)
Text: For validation purposes, a second, quantitative autophagy stimulation assay was utilized.

[6] = system: pMCAO; details: after pMCAO; cited from earlier work
[7] = system: C6 glioma tumor; details: C6 glioma xenograft into rat cortices; cited from earlier work
[8] = system: SOD1^G93A mouse; details: cited from earlier work
[9] = measurement of brain LKE levels and animal studies; cited from earlier work
[10] = system: people with ALS; details: cited from earlier work

CCCCC1=C(P(=O)(O)O)N[C@H](C(=O)O)CS1
autophagic flux / autophagy stimulation (LC3-II band in the presence of bafilomycin-A1) [1]: comparable activity; also recorded: stimulate autophagy to varying degrees; also recorded: greater autophagy activation effect than LKE
autophagic flux / autophagy stimulation (LC3-II band in the presence of bafilomycin-A1) ([1]; listed as 2-butyl-LK-P): more effective at inducing autophagic flux than, inter alia, LK-E
stability to high vacuum pressures [2]: stable to high vacuum pressures at least overnight without visual or spectral decomposition

CC(C)C1=C(P(=O)(O)O)NCCS1 [2-isopropyl-AECK-P]
autophagic flux / autophagy stimulation (LC3-II band in the presence of bafilomycin-A1) [1]: greater autophagy activation effect than LKE
autophagic flux / autophagy stimulation (LC3-II band in the presence of bafilomycin-A1) ([1]; listed as 2-isopropyl AECK-P): comparable activity

CC(C)C1=C(P(=O)(O)O)N[C@H](C(=O)O)CS1 [2-isopropyl-LK-P, 2-isopropyl lanthionine ketimine phosphonate]
cell death stemming from TNFa treatment [3]: reduced cell death
EC50 ([3]; Homo sapiens, HeLa, compound 1 h before, read-out: EC50% for reduction of cell death from TNFa): ~10 mM
autophagic flux / autophagy stimulation (LC3-II band in the presence of bafilomycin-A1) [1]: stimulates autophagy in RG2 cells at low micromolar concentrations; also recorded: much more potent stimulator of autophagy than LK; also recorded: comparable activity; also recorded: stimulate autophagy to varying degrees; also recorded: increase autophagic flux
autophagic flux / autophagy stimulation (LC3-II band in the presence of bafilomycin-A1) ([1]; listed as 2-isopropyl lanthionine-ketimine-phosphonate): clearly was more potent at 10 mM than was LK
autophagic flux / autophagy stimulation (LC3-II band in the presence of bafilomycin-A1) ([1]; listed as 2-isopropyl-lanthionine-ketimine-3-phosphonate): clearly more potent at 10 μM than LK was
stability to high vacuum pressures [2]: stable to high vacuum pressures at least overnight without visual or spectral decomposition

CCOC(=O)[C@@H]1CSC(CC)=C(C(=O)O)N1 [Compound 2-ethyl-LKE]
autophagic flux / autophagy stimulation (LC3-II band in the presence of bafilomycin-A1) [1]: stimulate autophagy in RG2 cells

O=C(O)C1=CSC[C@@H](C(=O)O)N1 [LK, (5R)-3,5,-dicarboxy-1-thia-4-aza-2-cyclohexene, reference compound]
autophagic flux / autophagy stimulation (LC3-II band in the presence of bafilomycin-A1) [1]: increase autophagic flux

CCOC(=O)C1=CSCC(C(=O)O)N1 (stereo not shown) [LKE, lanthionine ketenamine ethyl ester]
amyloid burden, phospho-tau, microglial activation, cognitive decline [4]: decreases amyloid burden inside neurons and in plaques, decreases phospho-tau accumulation, decreases microglial activation, and slows cognitive decline
EC50 [5]: ~50 nM
autophagic flux / autophagy stimulation (LC3-II band in the presence of bafilomycin-A1) [1]: stimulate autophagy to varying degrees
infarct volume and functional recovery [6]: decreases infarct volume and improves functional recovery
tumor growth [7]: slows growth of C6 glioma tumor
lifespan and motor function [8]: increases lifespan and slows decline of motor function
βββ (blood brain barrier) penetrability [9]: good βββ penetrability

Nc1nc2ccc(OC(F)(F)F)cc2s1 [Riluzole]
prolongation of life ([10]; ALS patients): 2-3 months

CC1=NN(c2ccccc2)C(=O)C1 [edaravone]
clinical decline in daily functioning ([10]; people with ALS): slows the clinical decline in daily functioning
